Here are results for 36 compounds from US9512111B2, “N-sulfonylated tetrahydroquinolines and related bicyclic compounds for inhibition of RORγ activity and the treatment of disease” (Lycera Corporation, priority 2010, dated 2016).

The target in one experiment is T1, RORγ-LBD (Homo sapiens, UniProt P51449).
T1 construct: HIS-tagged RORγ-LBD was recombinantly expressed in SF9 cells; made in house; host or cells: SF9 cells (baculovirus); unpurified lysate
T1 sequence (P51449 269-508 limits assumed): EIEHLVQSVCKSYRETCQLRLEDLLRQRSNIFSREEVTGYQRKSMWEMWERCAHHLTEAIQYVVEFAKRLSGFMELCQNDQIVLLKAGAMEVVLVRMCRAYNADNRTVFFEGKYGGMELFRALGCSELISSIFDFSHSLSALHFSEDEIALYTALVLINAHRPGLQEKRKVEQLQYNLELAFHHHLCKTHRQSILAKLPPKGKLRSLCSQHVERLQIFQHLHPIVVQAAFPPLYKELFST
The experiment in a line: RORγ-Ligand Binding Domain TR-FRET Assay. The format is biochemical. To be noted: benzoxazines, Table 9. In short, it runs like this: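 IC50 derived from the 665 nm/615 nm emission ratio after 4 h to overnight incubation. Mixture: Sf9 lysate with His-tagged LBD (~10 nM final, not purified), SRC1-2 LXXLL biotin peptide at 450 nM, 2 nM europium anti-His antibody, 60 nM APC-streptavidin; buffer 25 mM HEPES pH 7.0, 100 mM NaCl, 0.01% Tween, 0.1% BSA.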

In the next experiment the target is T2, RORγt (Homo sapiens, UniProt P51449).
T2 construct: The resulting GAL4-RORγt-LBD fusion construct was placed under the control of a constitutive cytomegalovirus (CMV) promoter; expressed in transfected cells; host or cells: HEK293
T2 sequence (P51449 269-508 limits assumed): T1 sequence (P51449 269-508 limits assumed)
The experiment in a line: RORγ Reporter Assay (GAL4-UAS luciferase reporter in HEK293 cells). To be noted: benzoxazines, Table 9; HEK cells. It counts as cell-based. As for the experimental part:
Inhibition of RORγt in cells was determined using a GAL4-UAS reporter system in HEK293 cells employing a luciferase readout. The RORγt DNA binding domain (DBD) was replaced with the heterologous yeast GAL4 DBD using standard recombinant DNA methods. The resulting GAL4-RORγt-LBD fusion construct was placed under the control of a constitutive cytomegalovirus (CMV) promoter by cloning it into the CMV-driven mammalian expression vector pcDNA3.1+− (Promega Corporation, Madison, Wis.).
A transcriptional reporter expression construct was used to monitor GAL4-RORγ activity, which contained five copies of the GAL4 binding site enhancer (UAS) controlling expression of a firefly luciferase reporter. This construct, pGL4.31, is commercially available from Promega Corporation, Madison Wis. Both expression constructs were transfected in bulk into HEK-293 cells using standard lipid-based transfection techniques, which allowed the GAL4 RORγ-LBD fusion protein to drive expression of the luciferase reporter. Control transfections were performed with an empty pCDN3.1+ vector.
The next day, cells were plated into 384 well plates, test compound was added, and the plates were incubated overnight. […] Promega firefly assays kits were used to stabilize the luciferase signal, and the intensity of the luciferase signal was measured using an EnVision Multilabel Plate Reader (Perkin Elmer, Waltham, Mass.).
HEK 293 cells are transfected with GAL4-NR construct (CMV:NR-LBD in pcDNA3.1neo) and the pGL4.31 GAL4-luciferase reporter construct (Promega). For a background control, use empty pcDNA3.1neo and pGL4.31. Transfection protocol is for a single T75 flask performed with Minis Trans-It 293 reagent. A 60 μL aliquot of Trans-IT reagent at room temperature is added drop wise to 1.5 mL of Optimem (Invitrogen). The resulting solution is mixed by inversion and incubated for 5-20 minutes at room temperature. This reagent mixture is added to 10 μg of DNA (5 μg of each expression vector used at a concentration of 1 mg/mL). The solution is mixed by inversion and incubated at room temperature for 20 minutes.
While the Trans-IT reagent and DNA are incubating, harvest HEK-293 cells. Remove media from flasks via aspiration and add enough TrypLE Express (stable Trypsin-like reagent, Invitrogen) to cover the bottom of the flask. The mixture is incubated at room temperature until the cells are visibly loose in the flask (approximately 2-5 minutes). Add an equal volume of complete growth media, and then pipette to achieve a single cell suspension. Spin down 1×10^7 cells and re-suspend the cells in 10 mL of complete growth media (DMEM high glucose/10% dialyzed FBS/pen/strep; Invitrogen). The cells and transfection mixture are added to one T75 flask. The contents of the T75 flax are mixed and incubated overnight at 37° C. and 5% CO2.
After 16-24 hours, cells are harvested and plated for test compound screening. Cells may be harvested as described above. Next, cells are counted and an appropriate number of cells are spun down. Then, cells are aspirated and re-suspended in complete growth media at a concentration of 0.5×10^6 cells/mL to provide a cell suspension. Plate 20 μL of the cell suspension into a white, tissue-culture treated 384 well plate. (10,000 cells/well).
A 10 mM stock solution of test compound in dimethylsulfoxide (DMSO) was diluted to 500× the final test concentration in DMSO, then diluted to 5× the final test concentration with complete growth medium to provide the Test Compound Solution. The concentration of DMSO in the Test Compound Solution was […]. A 5 μL aliquot of Test Compound Solution was added to each test well in the 384 well plate previously plated with the cell suspension. Next, plates are spun briefly and incubated overnight at 37° C. and 5% CO2.
After 16-24 hours, the luciferase assay is performed. Plates and luciferase reagent (e.g. One-Glo® or Dual Glo®; Promega, Madison, Wis.) are brought to room temperature.
(Reporter assays use an easily measured gene product as a stand-in for the process of interest.)

By IC50 is commonly meant the concentration that gives 50% inhibition. Consider `CCOCC1CN(S(=O)(=O)c2ccc(F)c(F)c2)c2cc(NC(=O)c3c(F)cccc3Cl)ccc2O1` (stereo not drawn) [VI-89], for which the concentration for half-maximal inhibition (IC50) at RORγ-LBD and against RORγt was less than 15 µM in each case.
On to `CCOCC1CN(S(=O)(=O)c2ccc(Cl)cc2)c2cc(NC(=O)c3c(Cl)cccc3C(F)(F)F)ccc2O1` (stereo not drawn) [VI-90], for which the IC50 at RORγ-LBD and against RORγt was less than 15 µM each time.
For the compound `COCC1CN(S(=O)(=O)c2ccc(Cl)cc2)c2cc(NC(=O)c3c(Cl)cccc3C(F)(F)F)ccc2O1` (stereo not drawn) [VI-91], the IC50 at RORγ-LBD and at RORγt was less than 15 µM throughout.
Take `CCOCC1CN(S(=O)(=O)c2ccc(Cl)cc2)c2cc(NC(=O)c3c(Cl)cccc3Cl)ccc2O1` (stereo not drawn) [VI-92]: the IC50 at RORγ-LBD and against RORγt was less than 15 µM in each case.
As to `CCOCC1CN(S(=O)(=O)c2ccc(Cl)cc2)c2cc(NC(=O)c3c(F)cccc3Cl)ccc2O1` (stereo not drawn) [VI-93], the IC50 at RORγ-LBD and against RORγt was less than 15 µM in each case.
As for `CCOCC1CN(S(=O)(=O)c2ccc(Cl)cc2)c2cc(NC(=O)c3c(F)cccc3F)ccc2O1` (stereo not drawn) [VI-94], the IC50 at RORγ-LBD and at RORγt was less than 15 µM in each case.
Regarding `COCC1CN(S(=O)(=O)c2ccc(Cl)cc2)c2cc(NC(=O)c3c(Cl)cccc3Cl)ccc2O1` (stereo not drawn) [VI-95], the IC50 at RORγ-LBD and against RORγt was less than 15 µM each time.
With `COCC1CN(S(=O)(=O)c2ccc(Cl)cc2)c2cc(NC(=O)c3c(F)cccc3Cl)ccc2O1` (stereo not drawn) [VI-96], the IC50 at RORγ-LBD and on RORγt was less than 15 µM each time.
Consider `COCC1CN(S(=O)(=O)c2ccc(Cl)cc2)c2cc(NC(=O)c3c(F)cccc3F)ccc2O1` (stereo not drawn) [VI-97], for which the IC50 at RORγ-LBD and against RORγt was less than 15 µM in each case.
Regarding `CCOCC1CN(S(=O)(=O)c2ccc(F)c(F)c2)c2cc(NC(=O)c3c(Cl)cccc3Cl)ccc2O1` (stereo not drawn) [VI-98], the IC50 on RORγ-LBD and against RORγt was less than 15 µM each time.
Regarding `CCOCC1CN(S(=O)(=O)c2ccc(F)c(F)c2)c2cc(NC(=O)c3c(F)cccc3F)ccc2O1` (stereo not drawn) [VI-99], the IC50 on RORγ-LBD and against RORγt was less than 15 µM throughout.
As to `CCOCC1CN(S(=O)(=O)c2cccc(C#N)c2)c2cc(NC(=O)c3c(F)cccc3Cl)ccc2O1` (stereo not drawn) [VI-100], the IC50 on RORγ-LBD and on RORγt was less than 15 µM throughout.
On to `COCC1CN(S(=O)(=O)c2cccc(C#N)c2)c2cc(NC(=O)c3c(F)cccc3Cl)ccc2O1` (stereo not drawn) [VI-101], for which the IC50 at RORγ-LBD and on RORγt was less than 15 µM in each case.
For the compound `CCOCC1CN(S(=O)(=O)c2cccc(C#N)c2)c2cc(NC(=O)c3c(F)cccc3F)ccc2O1` (stereo not drawn) [VI-102], the IC50 on RORγ-LBD and against RORγt was less than 15 µM in each case.
Consider `COCC1CN(S(=O)(=O)c2cccc(C#N)c2)c2cc(NC(=O)c3c(F)cccc3F)ccc2O1` (stereo not drawn) [VI-103], for which the IC50 at RORγ-LBD and on RORγt was less than 15 µM each time.
With `COCC1CN(S(=O)(=O)c2ccc(F)cc2)c2cc(NC(=O)c3c(Cl)cccc3C(F)(F)F)ccc2O1` (stereo not drawn) [VI-104], the IC50 on RORγ-LBD and on RORγt was less than 15 µM in each case.
Regarding `COCC1CN(S(=O)(=O)c2ccc(F)cc2)c2cc(NC(=O)c3c(Cl)cccc3Cl)ccc2O1` (stereo not drawn) [VI-105], the IC50 on RORγ-LBD and against RORγt was less than 15 µM in each case.
Take `O=C(Nc1ccc2c(c1)N(S(=O)(=O)c1ccc(F)cc1)C[C@@H](CO)O2)c1c(Cl)cccc1Cl` [VI-106]: the IC50 on RORγ-LBD and against RORγt was less than 15 µM in each case.
On to `O=C(Nc1ccc2c(c1)N(S(=O)(=O)c1ccc(F)cc1)CC(C(F)(F)F)O2)c1c(Cl)cccc1Cl` (stereo not drawn) [VI-107], for which the IC50 on RORγ-LBD and against RORγt was less than 15 µM in each case.
Consider `CCOCC1CN(S(=O)(=O)c2ccc(F)cc2)c2cc(NC(=O)c3c(Cl)cccc3Cl)ccc2O1` (stereo not drawn) [VI-108], for which the IC50 on RORγ-LBD and against RORγt was less than 15 µM throughout.
Consider `CC(C)OCC1CN(S(=O)(=O)c2ccc(F)cc2)c2cc(NC(=O)c3c(Cl)cccc3Cl)ccc2O1` (stereo not drawn) [VI-109], for which the IC50 on RORγ-LBD and on RORγt was less than 15 µM throughout.
As to `O=C(Nc1ccc2c(c1)N(S(=O)(=O)c1ccc(F)cc1)C[C@@H](CO)O2)c1c(F)cccc1F` [VI-110], the IC50 at RORγ-LBD and on RORγt was less than 15 µM throughout.
With `CCOCC1CN(S(=O)(=O)c2ccc(F)cc2)c2cc(NC(=O)c3c(F)cccc3F)ccc2O1` (stereo not drawn) [VI-112], the IC50 at RORγ-LBD and on RORγt was less than 15 µM throughout.
Turning to `COCC1CN(S(=O)(=O)c2ccc(F)cc2)c2cc(NC(=O)c3c(F)cccc3F)ccc2O1` (stereo not drawn) [VI-113], the IC50 at RORγ-LBD and at RORγt was less than 15 µM throughout.
With `O=C(Nc1ccc2c(c1)N(S(=O)(=O)c1ccc(F)cc1)C[C@H](CO)O2)c1c(F)cccc1F` [VI-114], the IC50 at RORγ-LBD and against RORγt was less than 15 µM throughout.
In the case of `CC(C)OCC1CN(S(=O)(=O)c2ccc(F)cc2)c2cc(NC(=O)c3c(F)cccc3F)ccc2O1` (stereo not drawn) [VI-115], the IC50 at RORγ-LBD and on RORγt was less than 15 µM each time.
For the compound `O=C(Nc1ccc2c(c1)N(S(=O)(=O)c1ccc(F)cc1)C[C@@H](CO)O2)c1c(F)cccc1Cl` [VI-116], the IC50 at RORγ-LBD and against RORγt was less than 15 µM throughout.
On to `CCOCC1CN(S(=O)(=O)c2ccc(F)cc2)c2cc(NC(=O)c3c(F)cccc3Cl)ccc2O1` (stereo not drawn) [VI-118], for which the IC50 at RORγ-LBD and against RORγt was less than 15 µM throughout.
Consider `COCC1CN(S(=O)(=O)c2ccc(F)cc2)c2cc(NC(=O)c3c(F)cccc3Cl)ccc2O1` (stereo not drawn) [VI-119], for which the IC50 at RORγ-LBD and against RORγt was less than 15 µM throughout.
For `O=C(Nc1ccc2c(c1)N(S(=O)(=O)c1ccc(F)cc1)C[C@H](CO)O2)c1c(F)cccc1Cl` [VI-120], the IC50 at RORγ-LBD and at RORγt was less than 15 µM throughout.
Take `CC(C)OCC1CN(S(=O)(=O)c2ccc(F)cc2)c2cc(NC(=O)c3c(F)cccc3Cl)ccc2O1` (stereo not drawn) [VI-121]: the IC50 at RORγ-LBD and at RORγt was less than 15 µM throughout.
For the compound `O=C(Nc1ccc2c(c1)N(S(=O)(=O)c1ccc(F)cc1)C[C@@H](CO)O2)c1c(Cl)cccc1C(F)(F)F` [VI-122], the IC50 on RORγ-LBD and against RORγt was less than 15 µM in each case.
Regarding `CC(C)OCC1CN(S(=O)(=O)c2ccc(F)cc2)c2cc(NC(=O)c3c(Cl)cccc3C(F)(F)F)ccc2O1` (stereo not drawn) [VI-123], the IC50 at RORγ-LBD and against RORγt was less than 15 µM in each case.
Consider `CC1(C)CN(S(=O)(=O)c2ccc(F)cc2)c2cc(NC(=O)c3c(F)cccc3C(F)(F)F)ccc2O1` [VI-124], for which the IC50 on RORγ-LBD and on RORγt was less than 15 µM each time.
For `CC1(C)CN(S(=O)(=O)c2ccc(F)cc2)c2cc(NC(=O)c3c(Cl)cccc3Cl)ccc2O1` [VI-125], the IC50 on RORγ-LBD and against RORγt was less than 15 µM each time.
Take `O=C(Nc1ccc2c(c1)N(S(=O)(=O)c1ccc(F)cc1)CCO2)c1c(Cl)cccc1Cl` [VI-129]: the IC50 at RORγ-LBD and against RORγt was less than 15 µM throughout.
